pEC50: −log10 of the molar value.
How the values were obtained:
CFTR ΔF508 mutant = biological target: T1, CFTR ΔF508 mutant (Homo sapiens, UniProt P13569, DEL508-508); assay: YFP-halide influx assay for the CFTR-ΔF508 mutation (CFBE41o- cells); type: cell-based; conditions: forskolin 10.67 μM; for pEC50: from (1−F/F0) vs concentration plot
T1 construct: expressed in transfected cells; host or cells: CFBE41o- cells, adenoviral transduction
Source text: The YFP halide influx assay measured the functionality of the cystic fibrosis Transmembrane Conductance regulator (CFTR) channels in the cystic fibrosis bronchial epithelium cell line CFBE41o-. The assay was used to evaluate the capacity of compounds to increase the open probability of existing CFTR channels in the membrane. It makes use of the observation that the yellow fluorescent protein (YFP) variant YFP H148Q, I152L, F47L has its fluorescence substantially quenched by halide ions like Cl^− and I^− (Galietta, L. J. V., Haggie, P. M., Verkman, A. S., 2001. Green fluorescent protein-based halide indicators with improved chloride and iodide affinities. FEBS Lett. 499, 220-224. doi:10.1016/S0014-5793(01)02561-3; Nagai, T., Ibata, K., Park, E. S., Kubota, M., Mikoshiba, K., Miyawaki, A., 2002. A variant of yellow fluorescent protein with fast and efficient maturation for cell-biological applications. Nat. Biotechnol. 20, 87-90. doi: 10.1038/nbt0102-87).
For this purpose, CFBE41o-cells were seeded in 384 well plates (3000 CFBE cells/well). One day after seeding, the CFBE cells were transduced with adenoviral vectors that direct the expression of the CFTR ΔF508 mutant and of the YFP reporter. Cells were incubated at 27° C., 5% CO2 for 24 hours so as to allow for the proper folding and migration to the membrane of the CFTR channel or treated with a CFTR modulator during 24 hours at 37° C.
(§1) The I-induced quenching of fluorescence was recorded on an immediately after injection of iodide for 2 minutes on an FDSS/μCell (Hamamatsu). The capacity of a compound to increase the channel opening was directly correlated with the decrease in fluorescence, and was expressed as (1−(fluorescence after 36 seconds (F)/fluorescence before injection (F0))) and an EC50 was derived from a (1−F/F0) vs compound concentration plot.

CFTR G551D mutant = biological target: T2, CFTR G551D mutant (Homo sapiens, UniProt P13569, G551D); assay: YFP-halide influx assay for the CFTR-G551D mutation (HEK293 cells); type: cell-based; conditions: forskolin 10.67 μM
T2 construct: expressed in transfected cells; host or cells: HEK293 cells, reverse transfection with plasmids
T2 sequence (P13569 whole entry G551D): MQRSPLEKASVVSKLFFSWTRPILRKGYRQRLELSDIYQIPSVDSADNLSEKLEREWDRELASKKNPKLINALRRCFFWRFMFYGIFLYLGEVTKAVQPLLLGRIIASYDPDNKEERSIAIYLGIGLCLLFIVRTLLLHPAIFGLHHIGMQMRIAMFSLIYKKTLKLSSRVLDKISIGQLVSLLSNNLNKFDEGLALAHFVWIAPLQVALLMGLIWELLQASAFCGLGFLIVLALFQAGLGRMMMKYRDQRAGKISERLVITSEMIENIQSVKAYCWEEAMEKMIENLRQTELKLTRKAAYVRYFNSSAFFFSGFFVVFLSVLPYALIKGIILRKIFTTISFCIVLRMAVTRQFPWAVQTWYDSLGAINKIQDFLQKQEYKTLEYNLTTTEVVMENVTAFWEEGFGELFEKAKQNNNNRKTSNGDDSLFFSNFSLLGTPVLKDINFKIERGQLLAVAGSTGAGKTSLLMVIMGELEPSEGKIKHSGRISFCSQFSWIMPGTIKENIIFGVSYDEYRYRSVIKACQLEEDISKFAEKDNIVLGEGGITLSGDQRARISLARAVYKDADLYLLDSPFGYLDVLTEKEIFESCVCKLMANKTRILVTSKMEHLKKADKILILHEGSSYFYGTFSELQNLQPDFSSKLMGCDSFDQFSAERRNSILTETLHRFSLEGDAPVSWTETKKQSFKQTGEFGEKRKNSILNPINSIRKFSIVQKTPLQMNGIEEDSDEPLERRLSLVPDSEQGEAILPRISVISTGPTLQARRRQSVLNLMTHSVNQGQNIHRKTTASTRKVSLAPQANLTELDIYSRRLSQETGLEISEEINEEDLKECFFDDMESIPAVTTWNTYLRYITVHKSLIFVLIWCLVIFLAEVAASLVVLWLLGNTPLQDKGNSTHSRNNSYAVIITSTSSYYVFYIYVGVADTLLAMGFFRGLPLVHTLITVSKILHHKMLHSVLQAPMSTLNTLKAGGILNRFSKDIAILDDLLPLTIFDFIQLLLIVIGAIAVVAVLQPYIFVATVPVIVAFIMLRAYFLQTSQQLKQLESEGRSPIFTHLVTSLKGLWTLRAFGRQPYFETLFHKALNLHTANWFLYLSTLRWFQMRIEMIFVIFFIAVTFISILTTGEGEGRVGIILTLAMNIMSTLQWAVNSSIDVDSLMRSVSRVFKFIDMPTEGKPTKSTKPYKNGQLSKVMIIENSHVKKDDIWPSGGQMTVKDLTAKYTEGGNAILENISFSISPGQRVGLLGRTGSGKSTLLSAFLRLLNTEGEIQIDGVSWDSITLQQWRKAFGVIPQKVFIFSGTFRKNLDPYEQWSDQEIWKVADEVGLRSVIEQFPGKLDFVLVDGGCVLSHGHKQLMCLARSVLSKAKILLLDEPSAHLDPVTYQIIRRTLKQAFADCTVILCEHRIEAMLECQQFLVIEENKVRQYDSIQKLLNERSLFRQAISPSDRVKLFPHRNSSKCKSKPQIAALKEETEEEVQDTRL
Source text: The YFP halide influx assay measured the functionality of the cystic fibrosis Transmembrane Conductance regulator (CFTR) channels. The assay was used to evaluate the capacity of compounds to increase the channel opening of existing mutant CFTR channels in the membrane. It makes use of the observation that the yellow fluorescent protein (YFP) variant YFP H148Q, I152L, F47L has its fluorescence substantially quenched by halide ions like Cl^− and I^− (Galietta, L. J. V., Haggie, P. M., Verkman, A. S., 2001. Green fluorescent protein-based halide indicators with improved chloride and iodide affinities. FEBS Lett. 499, 220-224. doi:10.1016/S0014-5793(01)02561-3).
For this purpose, HEK293-cells were seeded in 96 well plates. During seeding, the cells were reverse-transfected with plasmid vectors that direct the expression of the CFTR G551D mutant and of the YFP reporter. Cells were incubated at 37° C., 5% CO2 for 24 hours so as to allow for sufficient expression of the CFTR protein.
as §1, with “I^−-induced” for “I-induced”, “recorded” for “recorded on an”, “I^−” for “iodide”, “7 seconds.” for “2 minutes on an FDSS/μCell (Hamamatsu).”, “7” for “36”

T1 sequence (P13569 with tags, fused parts or gaps DEL508-508): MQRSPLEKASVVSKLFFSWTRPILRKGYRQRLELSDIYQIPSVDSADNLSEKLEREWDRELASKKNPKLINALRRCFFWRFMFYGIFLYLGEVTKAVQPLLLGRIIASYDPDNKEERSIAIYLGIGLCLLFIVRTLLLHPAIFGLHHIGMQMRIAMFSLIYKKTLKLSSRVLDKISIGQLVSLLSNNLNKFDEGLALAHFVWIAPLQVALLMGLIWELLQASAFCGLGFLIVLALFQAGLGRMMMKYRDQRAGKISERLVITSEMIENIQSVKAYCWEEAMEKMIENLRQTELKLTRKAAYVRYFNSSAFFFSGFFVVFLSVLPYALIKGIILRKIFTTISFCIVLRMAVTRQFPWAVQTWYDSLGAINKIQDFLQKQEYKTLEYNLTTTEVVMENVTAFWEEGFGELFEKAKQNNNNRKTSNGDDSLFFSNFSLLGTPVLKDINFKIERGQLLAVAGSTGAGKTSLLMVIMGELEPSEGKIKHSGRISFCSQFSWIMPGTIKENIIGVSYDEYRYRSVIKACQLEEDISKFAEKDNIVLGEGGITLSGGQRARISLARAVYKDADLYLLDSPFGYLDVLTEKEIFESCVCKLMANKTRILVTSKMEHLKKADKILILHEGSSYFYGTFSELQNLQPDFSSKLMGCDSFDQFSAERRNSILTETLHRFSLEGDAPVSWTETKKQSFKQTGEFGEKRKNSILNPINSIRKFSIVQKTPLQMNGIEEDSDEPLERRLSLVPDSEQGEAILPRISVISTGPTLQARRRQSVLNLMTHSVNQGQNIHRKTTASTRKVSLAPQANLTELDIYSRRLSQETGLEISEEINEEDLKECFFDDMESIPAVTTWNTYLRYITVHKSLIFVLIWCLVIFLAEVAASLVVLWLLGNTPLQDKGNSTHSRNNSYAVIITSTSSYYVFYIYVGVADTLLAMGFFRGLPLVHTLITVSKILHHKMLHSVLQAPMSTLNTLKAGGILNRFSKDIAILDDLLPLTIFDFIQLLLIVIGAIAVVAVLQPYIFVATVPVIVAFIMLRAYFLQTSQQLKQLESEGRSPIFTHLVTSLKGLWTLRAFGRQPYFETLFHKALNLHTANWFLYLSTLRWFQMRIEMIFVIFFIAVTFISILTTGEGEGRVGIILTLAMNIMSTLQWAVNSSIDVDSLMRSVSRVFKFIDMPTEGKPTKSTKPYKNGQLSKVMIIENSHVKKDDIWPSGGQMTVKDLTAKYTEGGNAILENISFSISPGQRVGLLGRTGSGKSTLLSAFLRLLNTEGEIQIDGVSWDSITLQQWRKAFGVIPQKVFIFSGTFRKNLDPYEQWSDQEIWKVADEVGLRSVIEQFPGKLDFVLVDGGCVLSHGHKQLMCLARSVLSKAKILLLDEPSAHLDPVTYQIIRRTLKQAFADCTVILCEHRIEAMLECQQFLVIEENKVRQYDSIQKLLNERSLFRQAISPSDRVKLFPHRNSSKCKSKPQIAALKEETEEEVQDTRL

Structure (SMILES)	% Activation (CFTR ΔF508 mutant)	pEC50 (CFTR ΔF508 mutant)	% Activation (CFTR G551D mutant)	pEC50 (CFTR G551D mutant)
Nc1cc(S(=O)(=O)c2ccc(C(F)(F)F)cc2F)cnc1C(=O)NC[C@@H]1CCOC1 [Compound 114, 3-amino-5-{[2-fluoro-4-(trifluoromethyl)phenyl]sulfonyl}-N-[(3S)-tetrahydrofuran-3-ylmethyl]pyridine-2-carboxamide]	109.3%	7.72	37.9%	< 5.00
CC(C)COCC(O)CNC(=O)c1ncc(S(=O)(=O)c2ccc(C(F)(F)F)cc2F)cc1N (stereo not shown) [Compound 170, 3-amino-5-{[2-fluoro-4-(trifluoromethyl)phenyl]sulfonyl}-N-[2-hydroxy-3-(2-methylpropoxy)propyl]pyridine-2-carboxamide]	108.6%	8.18	82.5%	6.60
Nc1cc(S(=O)(=O)c2cccc(F)c2)cnc1C(=O)N1CC(O)(C(F)(F)F)C1 [Compound 256, {3-amino-5-[(3-fluorophenyl)sulfonyl]pyridin-2-yl}[3-hydroxy-3-(trifluoromethyl)azetidin-1-yl]methanone]	107.4%	9.18	45.6%	< 5.48
Nc1cc(S(=O)(=O)c2ccc(OC(F)(F)F)cc2)cnc1C(=O)NCC1(CO)CCC1 [Compound 23, 3-amino-N-{[1-(hydroxymethyl)cyclobutyl]methyl}-5-{[4-(trifluoromethoxy)phenyl]sulfonyl}pyridine-2-carboxamide]	103.9%	7.11	57.4%	5.67
CC(C)OCC(O)CNC(=O)c1ncc(S(=O)(=O)c2ccc(OC(F)(F)F)cc2F)cc1N (stereo not shown) [Compound 168, 3-amino-5-{[2-fluoro-4-(trifluoromethoxy)phenyl]sulfonyl}-N-[2-hydroxy-3-(propan-2-yloxy)propyl]pyridine-2-carboxamide]	103.5%	8.02	82.4%	6.27
CC(C)Oc1ccc(S(=O)(=O)c2cnc(C(=O)NCC(O)C(F)(F)F)c(N)c2)cc1 (stereo not shown) [Compound 237, 3-amino-5-{[4-(propan-2-yloxy)phenyl]sulfonyl}-N-(3,3,3-trifluoro-2-hydroxypropyl)pyridine-2-carboxamide]	106.5%	8.00	69.5%	6.26
CC(C)(C)OCC(O)CNC(=O)c1ncc(S(=O)(=O)c2ccc(C(F)(F)F)cc2F)cc1N (stereo not shown) [Compound 224, 3-amino-N-(3-tert-butoxy-2-hydroxypropyl)-5-{[2-fluoro-4-(trifluoromethyl)phenyl]sulfonyl}pyridine-2-carboxamide]	106.0%	8.09	80.6%	6.56
Nc1cc(S(=O)(=O)c2ccc(OC(F)(F)F)cc2)cnc1C(=O)NCC(O)C(F)F (stereo not shown) [Compound 279, 3-amino-N-(3,3-difluoro-2-hydroxypropyl)-5-{[4-(trifluoromethoxy)phenyl]sulfonyl}pyridine-2-carboxamide]	113.0%	8.77	57.2%	6.18
C[C@H](O)CNC(=O)c1nc(N(C)C)c(S(=O)(=O)c2ccc(OC(F)(F)F)cc2)cc1N [Compound 283, 3-amino-6-(dimethylamino)-N-[(2S)-2-hydroxypropyl]-5-{[4-(trifluoromethoxy)phenyl]sulfonyl}pyridine-2-carboxamide]	93.3%	8.29	96.5%	5.58
COCCN(C1CC1)S(=O)(=O)c1cnc(C(=O)NCC(O)C(F)(F)F)c(N)c1 (stereo not shown) [Compound 108, 3-amino-5-[cyclopropyl(2-methoxyethyl)sulfamoyl]-N-(3,3,3-trifluoro-2-hydroxypropyl)pyridine-2-carboxamide]	110.0%	7.74	56.8%	5.77

Further lines, results first:

% Activation (CFTR ΔF508 mutant)	pEC50 (CFTR ΔF508 mutant)	% Activation (CFTR G551D mutant)	pEC50 (CFTR G551D mutant)	Structure (SMILES)
92.9%	6.99	23.8%	< 5.00	Nc1cc(S(=O)(=O)N2CC(F)(F)C2)cnc1C(=O)NCC(O)C(F)(F)F (stereo not shown) [Compound 97, 3-amino-5-[(3,3-difluoroazetidin-1-yl)sulfonyl]-N-(3,3,3-trifluoro-2-hydroxypropyl)pyridine-2-carboxamide]
104.0%	7.00	57.0%	6.08	CC1(CCNC(=O)c2ncc(S(=O)(=O)c3ccc(OC(F)(F)F)cc3)cc2N)CC1 [Compound 124, 3-amino-N-[2-(1-methylcyclopropyl)ethyl]-5-{[4-(trifluoromethoxy)phenyl]sulfonyl}pyridine-2-carboxamide]
114.0%	7.18	84.1%	5.66	Nc1cc(S(=O)(=O)c2ccc(OC(F)(F)F)cc2)cnc1C(=O)N1CC2(CCOC2)C1 [Compound 125, (3-amino-5-{[4-(trifluoromethoxy)phenyl]sulfonyl}pyridin-2-yl)(6-oxa-2-azaspiro[3.4]oct-2-yl)methanone]
122.0%	7.57	50.4%	6.12	Nc1cc(S(=O)(=O)c2ccc(C(F)(F)F)cc2)cnc1C(=O)N[C@H]1COCC[C@H]1O [Compound 257, 3-amino-N-[(3S,4R)-4-hydroxytetrahydro-2H-pyran-3-yl]-5-{[4-(trifluoromethyl)phenyl]sulfonyl}pyridine-2-carboxamide]
88.8%	7.37	60.2%	6.29	CC(C)[C@@H](CO)NC(=O)c1ncc(S(=O)(=O)c2ccc(OC(F)(F)F)cc2)cc1N [Compound 148, 3-amino-N-[(2S)-1-hydroxy-3-methylbutan-2-yl]-5-{[4-(trifluoromethoxy)phenyl]sulfonyl}pyridine-2-carboxamide]
83.4%	6.59	24.3%	–	Nc1cc(S(=O)(=O)c2ccc(OC(F)(F)F)cc2)cnc1C(=O)NNC(=O)CO [Compound 287, 3-amino-N′-(hydroxyacetyl)-5-{[4-(trifluoromethoxy)phenyl]sulfonyl}pyridine-2-carbohydrazide]
96.0%	7.91	82.0%	6.12	CCOCC(O)CNC(=O)c1ncc(S(=O)(=O)c2ccc(OC(F)(F)F)cc2)cc1N (stereo not shown) [Compound 88, 3-amino-N-(3-ethoxy-2-hydroxypropyl)-5-{[4-(trifluoromethoxy)phenyl]sulfonyl}pyridine-2-carboxamide]
47.0%	< 6.18	1.8%	< 5.00	C[C@H]1CCCN1S(=O)(=O)c1cnc(C(=O)NCc2nccc(=O)[nH]2)c(N)c1 [Compound 282, 3-amino-5-{[(2S)-2-methylpyrrolidin-1-yl]sulfonyl}-N-[(6-oxo-1,6-dihydropyrimidin-2-yl)methyl]pyridine-2-carboxamide]
97.9%	7.92	44.7%	6.40	CC[C@@H](CO)NC(=O)c1ncc(S(=O)(=O)c2ccc(OC(F)(F)F)cc2)cc1N [Compound 142, 3-amino-N-[(2S)-1-hydroxybutan-2-yl]-5-{[4-(trifluoromethoxy)phenyl]sulfonyl}pyridine-2-carboxamide]
41.4%	5.94	3.5%	< 5.00	CC(C)C[C@H](CO)NC(=O)c1ncc(S(=O)(=O)c2ccc(OC(F)(F)F)cc2)cc1N [Compound 46, 3-amino-N-[(2R)-1-hydroxy-4-methylpentan-2-yl]-5-{[4-(trifluoromethoxy)phenyl]sulfonyl}pyridine-2-carboxamide]
